Active and inactive are the calls of the source.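 The calls were made as follows: active = fitted concentration giving half of the maximal binding block below 66 µM; inactive = the rest.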
Biological target: anti-desmoglein 3 scFv antibody binding to human desmoglein 3 (DSG3)
Test: blockers of pemphigus antibody–desmoglein 3 interaction – biochemical, DSG3-coupled beads, scFv-GFP, flow cytometry, Cherry Pick 1, dose response (AID 602251)
Details: not given

Structure (SMILES) | EC50
COc1ccc(-n2c(SCC(=O)Nc3nccs3)nnc2-c2ccc(Cl)cc2)cc1 | 28.1 µM
CCC(CC)C(=O)Nc1cccc(S(=O)(=O)c2cccc(NC(=O)C(CC)CC)c2)c1 | 55 µM
O=C(O)C1Nc2c(O)cc(Cl)c([N+](=O)[O-])c2C2C=CCC12 (centres undefined) | 27.7 µM
O=c1c2c([N+](=O)[O-])cc([N+](=O)[O-])cc2sn1Cc1ccccc1 | 9.8 µM
COc1ccc(NC(=O)CSc2nc3c([nH]c4ccccc43)c(=O)n2C)c(OC)c1 | 22.4 µM
O=c1c2ccccc2sn1-c1nccs1 | 12.7 µM
O=[N+]([O-])c1ccc(N=NNc2ccc([N+](=O)[O-])cc2)cc1 | 58.8 µM
CCOC(=O)Cc1csc(-n2sc3ccccc3c2=O)n1 | 15 µM

Second part, the compound after the results:

EC50 | Structure (SMILES)
36 µM | O=C1c2ccccc2C(=O)N1Cc1nn2c(-c3ccc(Cl)cc3)nnc2s1
50.9 µM | C=CCn1c(SCC(=O)N2CCN(c3ccccc3)CC2)nc2c([nH]c3ccccc32)c1=O

Same assay, conditions: at 66.1 µM (top of the series)

Structure (SMILES) | binding response, lower = inhibition
O=C(Nc1nc2cc3c(cc2s1)OCCO3)c1ccc(N2C(=O)CCC2=O)cc1 | inactive
C=CCSc1nc(N)c(C#N)c(-c2ccccc2)c1C#N | inactive
COc1ccc(CNC(=O)c2ccc(-c3ccccc3)cc2)cc1OC | inactive
Cc1ccc(-n2ncc3c(=O)[nH]c(SCC(=O)N4CCN(c5ccccc5)CC4)nc32)cc1 | inactive
CCc1nnc(NC(=O)CSc2ncnc3c2oc2ccccc23)s1 | inactive
O=C(COC(=O)c1ccc(S(=O)(=O)N2CCc3ccccc3C2)cc1)NC1CCS(=O)(=O)C1 (centres undefined) | inactive
Cc1sc(NC(=O)CSc2nnc3scc(-c4ccccc4)n23)c(C#N)c1C | inactive
Nc1ncnc2oc(-c3ccco3)c(-c3ccco3)c12 | inactive
CC(=O)Nc1cccc(NC(=O)CSc2ccc(C(F)(F)F)cc2[N+](=O)[O-])c1 | inactive
S=c1[nH]ncn1/N=C/c1ccccc1 | inactive
COc1ccc(N2CCN(C(=O)c3sc4nc(-c5ccc(F)cc5)cn4c3C)CC2)cc1 | inactive
N=c1oc2ccc3ccccc3c2cc1C(N)=S | inactive
Cc1cc(SCC(=O)Nc2ccc3[nH]c(=O)[nH]c3c2)nc2ccccc12 | inactive
COc1ccc(NC(=O)c2cc(-c3ccc(C)o3)nc3ccccc23)cc1OC | inactive
Cc1ccc(-c2nc3sc(C#N)c(N)n3c(=O)c2C#N)cc1 | inactive

Other lines, results leading:

binding response, lower = inhibition | Structure (SMILES)
inactive | O=C1OC(COc2ccc(Br)cc2)CN1c1ccccc1 (centres undefined)
inactive | CCOc1ccc2nc(NC(=O)c3ccc(S(=O)(=O)N4CCOCC4)cc3)sc2c1
inactive | CCOC(=O)N1CCC(NC(=O)c2cc3c(-c4ccccc4F)nn(C)c3s2)CC1
inactive | Cc1c([N+](=O)[O-])cc(C(=O)Nc2ccc(NC(=O)c3ccco3)cc2)cc1[N+](=O)[O-]
inactive | CCC(=O)N1CCc2cc(S(=O)(=O)N(C)c3ccc(Br)cc3)ccc21
inactive | Cc1ccc(CSc2nnc(Nc3ccc(C)cc3)s2)cc1
inactive | CC(=O)Nc1ccc(-c2cc(-c3ccccc3)nc(-c3ccccc3)n2)cc1
inactive | COc1ccc(NC(=O)c2cc(-c3ccco3)nc3ccccc23)cc1
inactive | O=C(COC(=O)c1ccc(S(=O)(=O)N2CCCC2)cc1)NCc1ccc(Cl)cc1
